Series [1] concerns Human dermal fibroblasts. The following applies: cited from earlier work.
Series [2] concerns Human dermal fibroblasts. The series can be described thus: Fibroblast cytotoxicity assay. Type of series: cell-based. The note with it: 72 hours; for concentration up to which non-toxic (all concentrations evaluated): agent tested individually, KBM, 1.5 mM calcium; for growth-inhibition/cytotoxicity of the individual agent: agent tested individually over a wide range of concentrations. The protocol: Human dermal fibroblasts were isolated from skin biopsies and grown in monolayer culture using DMEM supplemented with 10% fetal bovine serum as culture medium. Growth was at 37° C. in a humidified atmosphere containing 5% CO2 and 95% air. For experimental studies, cells were plated at 5×10^4 cells per well in wells of a 24-well culture dish in the same culture medium. One day later, cells were washed and the DMEM culture medium was replaced with KBM. Human dermal fibroblasts were treated with culture medium (KBM) supplemented with a concentration of calcium (1.5 mM) that supports fibroblast survival on its own. Reagents to be tested for cytotoxicity and/or growth inhibition were included in the culture medium and the cells incubated for 72 hours.

Consider `CC1=C(/C=C/C(C)=C/C=C/C(C)=C/C(=O)O)C(C)(C)CCC1` [ATRA, all-trans retinoic acid], for which the “concentrations that are effective in this assay” value in series [1] is 1 to 10 µM.

Take `O=C1O[C@H]([C@@H](O)CO)C(O)=C1O` [L-ascorbic acid]: in series [2], the “concentration up to which non-toxic (all concentrations evaluated)” value is recorded as “up to 200 μg/mL”.

Turning to `CS(C)(=O)=O` [MSM, dimethyl sulfone], the “growth-inhibition/cytotoxicity of the individual agent” value (“growth-inhibition/cytotoxicity” below) in series [2] is “levels that produced growth-inhibition/cytotoxicity were achieved”.

Regarding `CCCCCCCCCCCCOS(=O)(=O)[O-].[Na+]` [SLS, sodium lauryl sulfate], in series [2], the “growth-inhibition/cytotoxicity” value is listed as “levels that produced growth-inhibition/cytotoxicity were achieved”.

As to `COc1cc(/C=C/C(=O)CC(=O)/C=C/c2ccc(O)c(OC)c2)ccc1O` [curcumin], the “growth-inhibition/cytotoxicity” value in series [2] is “levels that produced growth-inhibition/cytotoxicity were achieved”.

For hyaluronan, the “concentration up to which non-toxic (all concentrations evaluated)” value in series [2] was not above 20000 ng/mL.

(Values after patent US10653617B2, “Compositions of additives to ginger-curcumin to facilitate growth of fibroblasts and collagen” (priority 2016, dated 2020).)
